# Assay results from US20050019847A1, “ISG15-conjugated proteins” (priority 2003, published 2005).
# Peptide text beside a SMILES is read from it. * marks the point of attachment. Cbz = O=C(OCc1ccccc1)*
# What was measured:
# ISG15-conjugates = assay: Western blot of ISG15-conjugates in MEFs treated with proteasome inhibitor; format: cell-based, murine
# Experimental: (§1) (A) UBP43^+/+ and UBP43^−/− MEFs were incubated with or without IFNβ for 18 hours and were treated with lactacystin at a final concentration of 5 μM for 3 hours. An equal volume of DMSO (vehicle) was added to control samples. Cell lysates (10 μg total protein) were resolved on 8-18% minigel and western blot was performed with rabbit anti-mouse ISG15. The membrane was stripped and reprobed with anti-Ub serum. (B) UBP43^+/+ (not treated with IFN) and UBP43^−/− (incubated with IFNβ for 18 hours) MEFs were treated with MG132 at a final concentration of 10 μM for 3 hours. An equal volume of DMSO (vehicle) was added to control samples. PLCγ1 was immunoprecipitated and immunocomplexes were resolved on 7% minigel. The membrane was probed with anti-ISG15 and, after stripping, was reprobed with anti-PLCγ1. Positions of unmodified PLCγ1 are shown with arrows and positions of conjugates are shown with asterisks. Cell lysates (10 μg total protein) were also resolved on an identical minigel to assess amount of ISG15- and Ub-conjugates. Western blot was performed with rabbit anti-mouse ISG15 and after stripping the membrane was reprobed with anti-Ub serum.
# (§2) Wild type and UBP43^−/− murine embryonic fibroblasts (MEFs) were generated from a litter of embryos on embryonic day 12.5. Briefly, embryonic torsos were minced and trypsinized for 30 min at 37° C. […]
# ubiquitinated proteins = assay: Western blot of ubiquitinated proteins in MEFs treated with proteasome inhibitor; format: cell-based, murine; settings: UBP43−/− and UBP43+/+ MEFs, uninduced or IFNβ induced; lactacystin 5 μM for 3 hours
# Experimental: as §1, §2
SMILES,"level of ISG15-conjugation (ISG15-conjugates; UBP43+/+ (no IFN) and UBP43−/− (IFNβ 18 hours) MEFs, MG132 10 μM for 3 hours)",amount of ubiquitinated proteins (ubiquitinated proteins),"amount of ISG15-conjugates, treated vs untreated samples (ISG15-conjugates; UBP43−/− and UBP43+/+ MEFs, uninduced or IFNβ induced, lactacystin 5 μM for 3 hours)"
CC(C)C[C@@H](C=O)NC(=O)[C@H](CC(C)C)NC(=O)[C@H](CC(C)C)NC(=O)OCc1ccccc1 [MG132] (Cbz-Leu-Leu-Leu-aldehyde),do not affect,,
CC(=O)N[C@@H](CSC(=O)[C@]1([C@@H](O)C(C)C)NC(=O)[C@H](C)[C@@H]1O)C(=O)O [lactacystin],,increase,no difference
